Data on 4 sequences can be found in patent publication US20070128217A1 (priority 2003, published 2007).

Assay [1] has as its system antibodies in sera from SARS patients (sera 1a, 1b, 2, 6, 37, 62, London, SARS-yellow, SARS-green). The assay is classed as binding, human. Set-up: Binding of serum 6 to linear peptides of protein X1 of SARS-CoV Urbani / Binding of serum 37 to linear peptides of protein X1 of SARS-CoV Urbani / Binding of serum 6 to looped/cyclic peptide (PEPSCAN-ELISA) / Binding of serum 37 to looped/cyclic peptide (PEPSCAN-ELISA) / Binding of serum 37 to looped/cyclic peptides of protein X1 of SARS-CoV Urbani / Binding of serum 6 to linear peptides of protein X2 / Binding of serum 37 to linear peptides of protein X2 / Binding of serum 37 to looped/cyclic peptides of protein X2 of SARS-CoV Urbani / Binding of serum 6 to linear peptides of protein M of SARS-CoV Urbani / Binding of serum 37 to linear peptides of protein M of SARS-CoV Urbani / Binding of serum 6 to looped/cyclic peptides of protein M of SARS-CoV Urbani / Binding of serum 37 to looped/cyclic peptides of protein M of SARS-CoV Urbani / Binding of serum 6 to linear peptides of protein X3 of SARS-CoV Urbani / Binding of serum 37 to linear peptides of protein X3 of SARS-CoV Urbani / Binding of serum 37 to looped/cyclic peptides of protein X3 of SARS-CoV Urbani / Binding of serum 6 to linear peptides of protein X4 of SARS-CoV Urbani / Binding of serum 37 to linear peptides of protein X4 of SARS-CoV Urbani / Binding of serum 37 to looped/cyclic peptides of protein X4 of SARS-CoV Urbani / Binding of serum 6 to linear peptides of protein X5 of SARS-CoV Urbani / Binding of serum 37 to linear peptides of protein X5 of SARS-CoV Urbani / Binding of serum 37 to looped/cyclic peptides of protein X5 of SARS-CoV Urbani / Binding of serum 6 to linear peptides of protein N of SARS-CoV Urbani / Binding of serum 37 to linear peptides of protein N of SARS-CoV Urbani / Binding of serum 6 to linear peptide (PEPSCAN-ELISA) / Binding of serum 1a to looped/cyclic peptides of protein N of SARS-CoV Urbani / Binding of serum 1b to looped/cyclic peptides of protein N of SARS-CoV Urbani / Binding of serum 2 to looped/cyclic peptides of protein N of SARS-CoV Urbani / Binding of serum 6 to looped/cyclic peptides of protein N of SARS-CoV Urbani / Binding of serum 37 to looped/cyclic peptides of protein N of SARS-CoV Urbani / Binding of serum 62 to looped/cyclic peptides of protein N of SARS-CoV Urbani / Binding of serum London to looped/cyclic peptides of protein N of SARS-CoV Urbani / Binding of serum SARS-green to looped/cyclic peptides of protein N of SARS-CoV Urbani: unit not given here.

Assay [2] concerns control sera (pooled serum of ten healthy LUMC hospital workers; commercial negative donor pooled serum from the Dutch bloodbank). The class given is binding, human. Set-up: Binding of Control serum LUMC to linear peptides / Binding of Control serum Blood-bank to linear peptides / Binding of Control serum LUMC to looped peptides / Binding of Control Serum Blood-Bank to Looped peptides / Binding of Control serum LUMC to linear peptides of the protein M of SARS-CoV Urbani / Binding of Control serum Blood-bank to linear peptides of the protein M of SARS-CoV Urbani / Binding of Control serum LUMC to looped peptides of the protein M of SARS-CoV Urbani / Binding of Control Serum Blood-Bank to Looped peptides of the protein M of SARS-CoV Urbani: unit not given here.

For assay [3], the system named is rabbit serum obtained by immunizing a rabbit with the SARS-CoV strain Frankfurt 1. The class given is binding. Set-up: Binding of a rabbit serum to linear peptides / Binding of a rabbit serum to looped peptides / Rabbit serum linear peptides / Rabbit serum looped peptides / Binding of a rabbit serum to linear peptides of protein N of SARS-CoV Urbani (Rabbit serum linear peptides) / Binding of a rabbit serum to looped/cyclic peptides of protein N of SARS-CoV Urbani (Rabbit serum looped peptides): unit not given here.

Regarding STAWLCALGKVLPFH, in assay [1], the “Binding of serum 1a to linear peptides of protein X5 of SARS-CoV Urbani” value is 0.8, the “Binding of serum 1a to looped/cyclic peptides of protein X5 of SARS-CoV Urbani” value was determined as 0.6, the “Binding of serum 1b to linear peptides of protein X5 of SARS-CoV Urbani” value stood at 0.6 and the “Binding of serum 1b to looped/cyclic peptides of protein X5 of SARS-CoV Urbani” value turned out to be 0.4. For the same sequence, in assay [1], the “Binding of serum 2 to linear peptides of protein X5 of SARS-CoV Urbani” value is 0.6, the “Binding of serum 2 to looped/cyclic peptides of protein X5 of SARS-CoV Urbani” value stood at 0.6, the “Binding of serum 6 to linear peptides of protein X5 of SARS-CoV Urbani” value is 0.7 and the “Binding of serum 6 to looped/cyclic peptides of protein X5 of SARS-CoV Urbani” value turned out to be 0.5. For the same sequence, in assay [1], the “Binding of serum 37 to linear peptides of protein X5 of SARS-CoV Urbani” value turned out to be 0.7, the “Binding of serum 37 to looped/cyclic peptides of protein X5 of SARS-CoV Urbani” value is recorded as 0.4, the “Binding of serum 62 to linear peptides of protein X5 of SARS-CoV Urbani” value amounted to 0.8 and the “Binding of serum 62 to looped/cyclic peptides of protein X5 of SARS-CoV Urbani” value came out at 0.7. Besides, in assay [1], the “Binding of serum London to linear peptides of protein X5 of SARS-CoV Urbani” value turned out to be 0.7, the “Binding of serum London to looped/cyclic peptides of protein X5 of SARS-CoV Urbani” value is 0.2, the “Binding of serum SARS-green to linear peptides of protein X5 of SARS-CoV Urbani” value was determined as 0.6 and the “Binding of serum SARS-green to looped/cyclic peptides of protein X5 of SARS-CoV Urbani” value is listed as 0.3. Besides, in assay [1], the “Binding of serum SARS-yellow to linear peptides of protein X5 of SARS-CoV Urbani” value is 0.3 and the “Binding of serum SARS-yellow to looped/cyclic peptides of protein X5 of SARS-CoV Urbani” value is given as 1.0. In addition, in assay [2], the “Binding of Control Serum Blood-Bank to Looped peptides” value was determined as 0.5, the “Binding of Control serum Blood-bank to linear peptides” value worked out at 0.9, the “Binding of Control serum LUMC to linear peptides” value is given as 0.6 and the “Binding of Control serum LUMC to looped peptides” value came to 0.6. Moreover, in assay [3], the “Rabbit serum linear peptides” value is 0.5 and the “Rabbit serum looped peptides” value was found to be 0.7.
On to STHFAFACADGTRHT, for which, in assay [1], the “Binding of serum 1a to linear peptides of protein X4 of SARS-CoV Urbani” value is listed as 0.7, the “Binding of serum 1a to looped/cyclic peptides of protein X4 of SARS-CoV Urbani” value was 0.7, the “Binding of serum 1b to linear peptides of protein X4 of SARS-CoV Urbani” value came out at 0.6 and the “Binding of serum 1b to looped/cyclic peptides of protein X4 of SARS-CoV Urbani” value is on record as 0.5. Moreover, in assay [1], the “Binding of serum 2 to linear peptides of protein X4 of SARS-CoV Urbani” value worked out at 0.5, the “Binding of serum 2 to looped/cyclic peptides of protein X4 of SARS-CoV Urbani” value is reported as 0.6, the “Binding of serum 6 to linear peptides of protein X4 of SARS-CoV Urbani” value is listed as 0.7 and the “Binding of serum 6 to looped/cyclic peptides of protein X4 of SARS-CoV Urbani” value amounted to 0.5. For the same sequence, in assay [1], the “Binding of serum 37 to linear peptides of protein X4 of SARS-CoV Urbani” value was determined as 0.7, the “Binding of serum 37 to looped/cyclic peptides of protein X4 of SARS-CoV Urbani” value was 0.6, the “Binding of serum 62 to linear peptides of protein X4 of SARS-CoV Urbani” value came out at 0.8 and the “Binding of serum 62 to looped/cyclic peptides of protein X4 of SARS-CoV Urbani” value is recorded as 0.5. In addition, in assay [1], the “Binding of serum London to linear peptides of protein X4 of SARS-CoV Urbani” value turned out to be 0.8, the “Binding of serum London to looped/cyclic peptides of protein X4 of SARS-CoV Urbani” value is reported as 0.3, the “Binding of serum SARS-green to linear peptides of protein X4 of SARS-CoV Urbani” value amounted to 0.6 and the “Binding of serum SARS-green to looped/cyclic peptides of protein X4 of SARS-CoV Urbani” value came out at 0.5. In assay [1], the “Binding of serum SARS-yellow to linear peptides of protein X4 of SARS-CoV Urbani” value stood at 0.3 and the “Binding of serum SARS-yellow to looped/cyclic peptides of protein X4 of SARS-CoV Urbani” value is on record as 0.6. Moreover, in assay [2], the “Binding of Control Serum Blood-Bank to Looped peptides” value was found to be 0.7, the “Binding of Control serum Blood-bank to linear peptides” value is listed as 0.6, the “Binding of Control serum LUMC to linear peptides” value worked out at 0.5 and the “Binding of Control serum LUMC to looped peptides” value is on record as 0.9. In assay [3], the “Rabbit serum linear peptides” value is listed as 0.4 and the “Rabbit serum looped peptides” value is reported as 0.4.
SVSPKLFIRQEEVQQ: in assay [1], the “Binding of serum 1a to linear peptides of protein X4 of SARS-CoV Urbani” value came out at 0.7, the “Binding of serum 1a to looped/cyclic peptides of protein X4 of SARS-CoV Urbani” value stood at 0.7, the “Binding of serum 1b to linear peptides of protein X4 of SARS-CoV Urbani” value is given as 0.5 and the “Binding of serum 1b to looped/cyclic peptides of protein X4 of SARS-CoV Urbani” value came out at 0.6. Also, in assay [1], the “Binding of serum 2 to linear peptides of protein X4 of SARS-CoV Urbani” value is recorded as 0.3, the “Binding of serum 2 to looped/cyclic peptides of protein X4 of SARS-CoV Urbani” value is 0.6, the “Binding of serum 6 to linear peptides of protein X4 of SARS-CoV Urbani” value amounted to 0.5 and the “Binding of serum 6 to looped/cyclic peptides of protein X4 of SARS-CoV Urbani” value is on record as 0.4. Also, in assay [1], the “Binding of serum 37 to linear peptides of protein X4 of SARS-CoV Urbani” value worked out at 0.7, the “Binding of serum 37 to looped/cyclic peptides of protein X4 of SARS-CoV Urbani” value was 0.7, the “Binding of serum 62 to linear peptides of protein X4 of SARS-CoV Urbani” value is 0.7 and the “Binding of serum 62 to looped/cyclic peptides of protein X4 of SARS-CoV Urbani” value was determined as 0.6. Also, in assay [1], the “Binding of serum London to linear peptides of protein X4 of SARS-CoV Urbani” value was 0.6, the “Binding of serum London to looped/cyclic peptides of protein X4 of SARS-CoV Urbani” value worked out at 0.3, the “Binding of serum SARS-green to linear peptides of protein X4 of SARS-CoV Urbani” value was found to be 0.4 and the “Binding of serum SARS-green to looped/cyclic peptides of protein X4 of SARS-CoV Urbani” value was 0.7. Moreover, in assay [1], the “Binding of serum SARS-yellow to linear peptides of protein X4 of SARS-CoV Urbani” value stood at 0.3 and the “Binding of serum SARS-yellow to looped/cyclic peptides of protein X4 of SARS-CoV Urbani” value came out at 0.4. In addition, in assay [2], the “Binding of Control Serum Blood-Bank to Looped peptides” value was 0.4, the “Binding of Control serum Blood-bank to linear peptides” value is listed as 0.6, the “Binding of Control serum LUMC to linear peptides” value was found to be 0.3 and the “Binding of Control serum LUMC to looped peptides” value is reported as 0.7. In addition, in assay [3], the “Rabbit serum linear peptides” value was found to be 0.4 and the “Rabbit serum looped peptides” value was 0.3.
On to SVTDTIVVTEGDGIS, for which, in assay [1], the “Binding of serum 1a to linear peptides of protein X1 of SARS-CoV Urbani” value was determined as 0.6, the “Binding of serum 1a to looped/cyclic peptides of protein X1 of SARS-CoV Urbani” value was 0.3, the “Binding of serum 1b to linear peptides of protein X1 of SARS-CoV Urbani” value was 0.5 and the “Binding of serum 1b to looped/cyclic peptides of protein X1 of SARS-CoV Urbani” value came to 0.2. Further, in assay [1], the “Binding of serum 2 to linear peptides of protein X1 of SARS-CoV Urbani” value is given as 0.4, the “Binding of serum 2 to looped/cyclic peptides of protein X1 of SARS-CoV Urbani” value is given as 0.1, the “Binding of serum 6 to linear peptides of protein X1 of SARS-CoV Urbani” value was found to be 0.4 and the “Binding of serum 6 to looped/cyclic peptides of protein X1 of SARS-CoV Urbani” value came out at 0.1. In assay [1], the “Binding of serum 37 to linear peptides of protein X1 of SARS-CoV Urbani” value is 0.5, the “Binding of serum 37 to looped/cyclic peptides of protein X1 of SARS-CoV Urbani” value stood at 0.3, the “Binding of serum 62 to linear peptides of protein X1 of SARS-CoV Urbani” value was determined as 0.5 and the “Binding of serum 62 to looped/cyclic peptides of protein X1 of SARS-CoV Urbani” value is 0.3. In addition, in assay [1], the “Binding of serum London to linear peptides of protein X1 of SARS-CoV Urbani” value is on record as 0.2, the “Binding of serum London to looped/cyclic peptides of protein X1 of SARS-CoV Urbani” value came out at 0.1, the “Binding of serum SARS-green to linear peptides of protein X1 of SARS-CoV Urbani” value was found to be 0.1 and the “Binding of serum SARS-green to looped/cyclic peptides of protein X1 of SARS-CoV Urbani” value is 0.2. Also, in assay [1], the “Binding of serum SARS-yellow to linear peptides of protein X1 of SARS-CoV Urbani” value is listed as 0.4 and the “Binding of serum SARS-yellow to looped/cyclic peptides of protein X1 of SARS-CoV Urbani” value was found to be 0.2. In addition, in assay [2], the “Binding of Control Serum Blood-Bank to Looped peptides” value was 0.3, the “Binding of Control serum Blood-bank to linear peptides” value came out at 0.4, the “Binding of Control serum LUMC to linear peptides” value stood at 0.4 and the “Binding of Control serum LUMC to looped peptides” value worked out at 0.3. In assay [3], the “Binding of a rabbit serum to linear peptides” value worked out at 0.1 and the “Binding of a rabbit serum to looped peptides” value was found to be 0.4.
